Experimental data taken from US9120779B2, “Inhibitors of HCV NS5A” (PRESIDIO PHARMACEUTICALS, INC., priority 2008, dated 2015).

The compounds below were run on HCV genotype 1b replicon in Huh 7 cells (assay: HCV replicon assay (luciferase readout, 1b_Huh-Luc/Neo-ET cell line)). Settings: Hepatitis C virus, Huh-7, 72 h, read-out: Inhibition of HCV genotype 1b, Table 1, 72 h incubation.
Type: cell-based
Procedure, shortened: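 Inhibition expressed as percent of untreated control luciferase signal and fitted to a Hill-slope equation for EC50, with repeat determinations. Compounds were added in triplicate to Huh 7 cells stably expressing the genotype 1b luciferase replicon, with 72 h exposure.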
COC(=O)N[C@@H](C(=O)N1CCC[C@H]1c1ncc(C2CCC(c3ccc(-c4cnc([C@@H]5CCCN5C(=O)[C@@H](c5ccccc5)N(C)C)[nH]4)cc3)CC2)[nH]1)c1ccccc1 (stereo partly drawn) [compound 377] gave an EC50 of less than 1 nM. In the case of COC(=O)N[C@H](C(=O)N1CCC[C@H]1c1ncc(-c2ccc([C@H]3CC[C@H](c4cnc([C@@H]5CCCN5C(=O)[C@@H](NC(=O)OC)[C@@H](C)OC)[nH]4)CC3)cc2)[nH]1)[C@@H](C)OC [compound 388], the EC50 is reported as less than 1 nM. Compound COC(=O)N[C@H](C(=O)N1CCC[C@H]1c1ncc(-c2ccc([C@H]3CC[C@H](c4cnc([C@@H]5CCCN5C(=O)[C@@H](NC(=O)OC)C5CC5)[nH]4)CC3)cc2)[nH]1)C1CC1 [compound 942] has an EC50 of less than 1 nM. COC(=O)N[C@H](C(=O)N1CCC[C@H]1c1ncc(-c2ccc([C@H]3CC[C@H](c4cnc([C@@H]5CCCN5C(=O)[C@H](NC(=O)NC5CCOCC5)C(C)C)[nH]4)CC3)cc2)[nH]1)C(C)C [compound 944] showed an EC50 of less than 1 nM. In the case of COC(=O)N[C@H](C(=O)N1CCC[C@H]1c1ncc(-c2ccc([C@H]3CC[C@H](c4cnc([C@@H]5CCCN5C(=O)[C@@H](c5ccccc5)N(C)C)[nH]4)CC3)cc2)[nH]1)C(C)C [compound 940], the EC50 is reported as less than 1 nM. CC(C)[C@@H](NC(=O)N1CCOCC1)C(=O)N1CCC[C@H]1C(=O)N[C@H]1CC[C@@H](c2ccc(-c3cnc([C@@H]4CCCN4C(=O)[C@H](NC(=O)N4CCOCC4)C(C)C)[nH]3)cc2)CC1 [compound 361] gave an EC50 of 10 to 999 nM. O=C(N[C@@H](C(=O)N1CCC[C@H]1C(=O)N[C@H]1CC[C@H](c2ccc(-c3cnc([C@@H]4CCCN4C(=O)[C@H](NC(=O)C4CC4)c4ccccc4)[nH]3)cc2)CC1)c1ccccc1)C1CC1 [compound 350] was tested, and the EC50 was less than 1 nM. In the case of COC(=O)N[C@H](C(=O)N1CCC[C@H]1c1ncc(-c2ccc([C@H]3CC[C@@H](c4cnc([C@@H]5CCCN5C(=O)[C@@H](NC(=O)OC)C(C)C)[nH]4)CC3)cc2)[nH]1)C(C)C [compound 382], the EC50 is reported as less than 1 nM. CC(C)[C@@H](NC(=O)OC(C)(C)C)C(=O)N1CCC[C@H]1C(=O)N[C@H]1CC[C@@H](c2ccc(-c3cnc([C@@H]4CCCN4C(=O)[C@H](NC(=O)OC(C)(C)C)C(C)C)[nH]3)cc2)CC1 [compound 357] gave an EC50 of 10 to 999 nM.

Same assay, conditions: Hepatitis C virus, Huh-7, 72 h, read-out: Inhibition of HCV genotype 1b, Table 3, 72 h incubation
COC(=O)N[C@H](C(=O)N1CCC[C@H]1c1ncc(C2CCN(c3c(F)cc(-c4cnc([C@@H]5CCCN5C(=O)[C@H](NC(=O)OC)c5ccccc5)[nH]4)cc3F)CC2)[nH]1)C(C)C [compound 490] was tested, and the EC50 was less than 1 nM. Work on COC(=O)N[C@@H](C(=O)N1CCC[C@H]1c1ncc(-c2cc(F)c(N3CCC(C)(c4cnc([C@@H]5CCCN5C(=O)[C@H](NC(=O)OC)c5ccccc5)[nH]4)CC3)c(F)c2)[nH]1)c1ccccc1 [compound 2028] yielded an EC50 of less than 1 nM. In the case of COC(=O)N[C@@H](C(=O)N1CCC[C@H]1c1ncc(-c2cc(F)c(N3CCC(c4cnc([C@@H]5CCCN5C(=O)[C@H](NC(=O)OC(C)(C)C)c5ccccc5)[nH]4)CC3)c(F)c2)[nH]1)c1ccccc1 [compound 460], the EC50 is reported as less than 1 nM. COC(=O)N[C@@H](C(=O)N[C@@H](C)c1ncc(C2CCN(c3c(F)cc(-c4cnc([C@@H]5CCCN5C(=O)[C@H](NC(=O)OC)c5ccccc5)[nH]4)cc3F)CC2)[nH]1)c1ccccc1 [compound 517] was tested, and the EC50 was less than 1 nM. COC(=O)N[C@@H](C(=O)N1CCC[C@H]1c1ncc(-c2cc(F)c(N3CCC(c4cnc([C@@H]5COCCN5C(=O)[C@H](NC(=O)OC)c5ccccc5)[nH]4)CC3)c(F)c2)[nH]1)c1ccccc1 [compound 492] showed an EC50 of less than 1 nM. With C[C@H](NC(=O)[C@H](NC(=O)OC(C)(C)C)c1ccccc1)c1ncc(-c2cc(F)c(N3CCC(c4cnc([C@@H]5CCCN5C(=O)[C@H](NC(=O)OC(C)(C)C)c5ccccc5)[nH]4)CC3)c(F)c2)[nH]1 [compound 520] the EC50 was less than 1 nM. CC(C)(C)OC(=O)N[C@@H](C(=O)N1CCOC[C@H]1c1ncc(-c2cc(F)c(N3CCC(c4cnc([C@@H]5CCCN5C(=O)[C@H](NC(=O)OC(C)(C)C)c5ccccc5)[nH]4)CC3)c(F)c2)[nH]1)c1ccccc1 [compound 508] gave an EC50 of less than 1 nM. In the case of CC(C)(C)OC(=O)N[C@@H](C(=O)N1CCC[C@H]1c1ncc(-c2ccc(N3CCC(c4cnc([C@@H]5CCCN5C(=O)[C@H](NC(=O)OC(C)(C)C)c5ccccc5)[nH]4)CC3)c(F)c2)[nH]1)c1ccccc1 [compound 450], the EC50 is reported as less than 1 nM. In the case of O=C(N[C@@H](C(=O)N1CCC[C@H]1c1ncc(-c2cc(F)c(N3CCC(c4cnc([C@@H]5COCCN5C(=O)[C@@H](c5ccccc5)N5CCCCC5)[nH]4)CC3)c(F)c2)[nH]1)c1ccccc1)C1CC1 [compound 495], the EC50 is reported as less than 1 nM.

Same assay, conditions: Hepatitis C virus, Huh-7, 72 h, read-out: Inhibition of HCV genotype 1b, Table 4, 72 h incubation
With COC(=O)N[C@H](C(=O)N1CCC[C@H]1c1nc2ccc(-c3ccc(-c4ccc5nc([C@@H]6CCCN6C(=O)[C@@H](NC(=O)OC)[C@@H](C)O)[nH]c5c4)cc3)cc2[nH]1)[C@@H](C)O [compound 557] the EC50 was less than 1 nM. Compound COC(=O)N[C@H](C(=O)N1CCC[C@H]1c1nc2ccc(-c3ccc(-c4ccc5nc([C@@H]6CCCN6C(=O)[C@H](C(C)C)N(C)C)[nH]c5c4)cc3)cc2[nH]1)C(C)C [compound 933] has an EC50 of less than 1 nM. In the case of COC(=O)N[C@H](C(=O)N1CCC[C@H]1c1nc2ccc(-c3cnc(-c4ccc5nc([C@@H]6CCCN6C(=O)[C@@H](NC(=O)OC)C(C)C)[nH]c5c4)cn3)cc2[nH]1)C(C)C [compound 2036], the EC50 is reported as less than 1 nM. COC(=O)N[C@H](C(=O)N[C@@H](C)c1nc2ccc(-c3ccc(-c4ccc5nc([C@H](C)NC(=O)[C@@H](NC(=O)OC)C(C)C)[nH]c5c4)cc3)cc2[nH]1)C(C)C [compound 932] gave an EC50 of less than 1 nM.

Same assay, conditions: Hepatitis C virus, Huh-7, 72 h, read-out: Inhibition of HCV genotype 1b, Table 5, 72 h incubation
Work on CC(C)[C@H](NC(=O)N1CC[C@H](O)C1)C(=O)N1CCC[C@H]1c1ncc(-c2ccc(C34CCC(c5cnc([C@@H]6CCCN6C(=O)[C@@H](NC(=O)N6CC[C@H](O)C6)C(C)C)[nH]5)(CC3)CC4)cc2)[nH]1 [compound 635] yielded an EC50 of less than 1 nM. COC(=O)N[C@H](C(=O)N1CCC[C@H]1c1ncc(C23CCC(c4ccc(-c5cnc([C@@H]6CCCN6C(=O)[C@@H](NC(=O)N6CCC[C@H]6CO)C(C)C)[nH]5)cc4)(CC2)CC3)[nH]1)C(C)C [compound 652] gave an EC50 of less than 1 nM. In the case of CC(C)[C@H](NC(=O)N1CCC(=O)CC1)C(=O)N1CCC[C@H]1c1ncc(-c2ccc(C34CCC(c5cnc([C@@H]6CCCN6C(=O)[C@@H](NC(=O)N6CCC(=O)CC6)C(C)C)[nH]5)(CC3)CC4)cc2)[nH]1 [compound 638], the EC50 is reported as greater than 1000 nM. COC(=O)N[C@H](C(=O)N1CCC[C@H]1c1ncc(-c2ccc(C34CCC(c5cnc([C@@H]6CCCN6C(=O)[C@@H](NC(=O)OC)C6CC6)[nH]5)(CC3)CC4)cc2)[nH]1)C1CC1 [compound 908] showed an EC50 of less than 1 nM. For COC(=O)N[C@@H](C(=O)N1CCC[C@H]1c1ncc(-c2ccc(C34CCC(c5cnc([C@@H]6CCCN6C(=O)[C@@H](NC(=O)N6CCOCC6)C(C)C)[nH]5)(CC3)CC4)cc2)[nH]1)c1ccccc1 [compound 2052], the EC50 was less than 1 nM. CCNC(=O)N[C@H](C(=O)N1CCC[C@H]1c1ncc(-c2ccc(C34CCC(c5cnc([C@@H]6CCCN6C(=O)[C@@H](NC(=O)OC)C(C)C)[nH]5)(CC3)CC4)cc2)[nH]1)C(C)C [compound 2096] showed an EC50 of less than 1 nM. CC(C)[C@H](NC(=O)N1CCC(C)(O)CC1)C(=O)N1CCC[C@H]1c1ncc(-c2ccc(C34CCC(c5cnc([C@@H]6CCCN6C(=O)[C@@H](NC(=O)N6CCC(C)(O)CC6)C(C)C)[nH]5)(CC3)CC4)cc2)[nH]1 [compound 634] showed an EC50 of less than 1 nM. For COC(=O)N[C@@H](C(=O)N1CCC[C@H]1c1ncc(C23CCC(c4ccc(-c5cnc([C@@H]6CCCN6C(=O)[C@@H](c6ccccc6)N(C)C)[nH]5)cc4)(CC2)CC3)[nH]1)c1ccccc1 [compound 622], the EC50 was less than 1 nM. With COC(=O)N[C@@H](C)C(=O)N1CCC[C@H]1c1ncc(-c2ccc(C34CCC(c5cnc([C@@H]6CCCN6C(=O)[C@H](C)NC(=O)OC)[nH]5)(CC3)CC4)cc2)[nH]1 [compound 916] the EC50 was less than 1 nM. COC(=O)N[C@@H](C(=O)N[C@@H](C)c1ncc(C23CCC(c4ccc(-c5cnc([C@@H]6CCCN6C(=O)[C@H](NC(=O)OC)c6ccccc6)[nH]5)cc4)(CC2)CC3)[nH]1)c1ccccc1 [compound 2098] showed an EC50 of less than 1 nM. COC(=O)N[C@H](C(=O)N1CCC[C@H]1c1ncc(-c2ccc(C34CCC(c5cnc([C@@H]6CCCN6C(=O)[C@@H](NC(=O)OC)[C@H](C)O)[nH]5)(CC3)CC4)cc2)[nH]1)[C@H](C)O [compound 909] showed an EC50 of 1 to 9.9 nM. With COC(=O)N[C@@H](CC(C)C)C(=O)N1CCC[C@H]1c1ncc(-c2ccc(C34CCC(c5cnc([C@@H]6CCCN6C(=O)[C@@H](NC(=O)OC)C(C)C)[nH]5)(CC3)CC4)cc2)[nH]1 [compound 2072] the EC50 was less than 1 nM. For COC(=O)N[C@H](C(=O)N1CCC[C@H]1c1ncc(-c2ccc(C34CCC(c5cnc([C@@H]6CCCN6C(=O)[C@H](NC(=O)N6CC[C@@H](O)C6)c6ccccc6)[nH]5)(CC3)CC4)cc2)[nH]1)C(C)C [compound 2088], the EC50 was less than 1 nM. For COC(=O)N[C@H](C(=O)N1CCC[C@H]1c1ncc(-c2ccc(C34CCC(c5cnc([C@@H]6CCCN6C(=O)[C@@H](NC(=O)OC6CCOCC6)c6ccccc6)[nH]5)(CC3)CC4)cc2)[nH]1)C(C)C [compound 2107], the EC50 was less than 1 nM. COC(=O)N[C@H](C(=O)N[C@@H](C)c1ncc(-c2ccc(C34CCC(c5cnc([C@@H]6CCCN6C(=O)[C@@H](c6ccccc6)N(C)C)[nH]5)(CC3)CC4)cc2)[nH]1)C(C)C [compound 2085] showed an EC50 of less than 1 nM.

Same assay, conditions: Hepatitis C virus, Huh-7, 72 h, read-out: Inhibition of HCV genotype 1b, Table 8, 72 h incubation
COC(=O)N[C@H](C(=O)N1CCC[C@H]1c1ncc(C23CCC(c4ccc5c(c4)nc([C@@H]4CCCN4C(=O)[C@@H](NC(=O)OC)C(C)C)n5C)(CC2)CC3)[nH]1)C(C)C [compound 2116] was tested, and the EC50 was 10 to 999 nM.

Same assay, conditions: read-out: Inhibition of HCV genotype 1b, Table 5, 72 h incubation
With COC(=O)N[C@@H](C(=O)N1CCC[C@H]1c1ncc(-c2ccc(C34CCC(c5cnc([C@@H]6CCCN6C(=O)[C@@H](NC(=O)N6CCOCC6)C(C)C)[nH]5)(CC3)CC4)cc2)[nH]1)c1ccccc1 [compound 643] the EC50 was 1 to 9.9 nM.
